According to patent US20100010219A1, “METHOD FOR PRODUCING PYRROLIDINE COMPOUND” (JAPAN TOBACCO INC., priority 2006, published 2010):
Counter-ions that a name gives are not always drawn.

Target: T1, human HSD-1 (recombinant HSD-1) (Homo sapiens, UniProt P28845)
T1 construct: made in house
Test: HSD-1 activity inhibitory action in vitro (SPA, conversion of cortisone to cortisol)
Format: biochemical
Conditions: recombinant human HSD-1 expressed using baculovirus system; 10 nM 3H cortisone, 500 μM NADPH; room temperature 90 to 120 min; read-out: hHSD1 (IC50 (nM))

T1 sequence (P28845 whole entry): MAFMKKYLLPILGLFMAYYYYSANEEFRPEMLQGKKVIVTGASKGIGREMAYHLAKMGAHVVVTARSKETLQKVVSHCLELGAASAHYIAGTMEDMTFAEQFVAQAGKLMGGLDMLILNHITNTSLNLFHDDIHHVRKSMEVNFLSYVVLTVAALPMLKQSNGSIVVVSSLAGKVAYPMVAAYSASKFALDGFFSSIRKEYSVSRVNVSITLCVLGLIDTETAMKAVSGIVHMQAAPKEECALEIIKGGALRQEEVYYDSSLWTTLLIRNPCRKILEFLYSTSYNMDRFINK

IC50 [nM]	SMILES
< 30	O=C(O)c1cccc(N2CCC(n3ncc(C(=O)N4CCC(c5ccccc5C(F)(F)F)C4)c3C3CC3)CC2)c1 (centres unmarked) [Example 114, 3-(4-{5-cyclopropyl-4-[3-(2-trifluoromethylphenyl)pyrrolidine-1-carbonyl]pyrazol-1-yl}piperidin-1-yl)benzoic acid]
< 30	O=C(O)c1ccc(N2CCC(n3ncc(C(=O)N4CCC(c5ccccc5C(F)(F)F)C4)c3C3CC3)CC2)s1 (centres unmarked) [Example 115, 5-(4-{5-cyclopropyl-4-[3-(2-trifluoromethylphenyl)pyrrolidine-1-carbonyl]pyrazol-1-yl}piperidin-1-yl)thiophene-2-carboxylic acid]
< 30	O=C(O)c1csc(N2CCC(n3ncc(C(=O)N4CCC(c5ccccc5C(F)(F)F)C4)c3C3CC3)CC2)n1 (centres unmarked) [Example 116, 2-(4-{5-cyclopropyl-4-[3-(2-trifluoromethylphenyl)pyrrolidine-1-carbonyl]pyrazol-1-yl}piperidin-1-yl)thiazole-4-carboxylic acid]
< 30	Cc1nc(N2CCC(n3ncc(C(=O)N4CC[C@@H](c5ccccc5C(F)(F)F)C4)c3C3CC3)CC2)n[nH]1 [Example 117, 1-{5-cyclopropyl-1-[1-(5-methyl-4H-[1,2,4]triazol-3-yl)piperidin-4-yl]-1H-pyrazole-4-carbonyl}-[(S)-3-(2-trifluoromethylphenyl)]pyrrolidine hydrochloride]
< 30	O=C(c1cnn(C2CCN(c3n[nH]c(C4CC4)n3)CC2)c1C1CC1)N1CC[C@@H](c2ccccc2C(F)(F)F)C1 [Example 118, 1-{5-cyclopropyl-1-[1-(5-cyclopropyl-4H-[1,2,4]triazol-3-yl)piperidin-4-yl]-1H-pyrazole-4-carbonyl}-[(S)-3-(2-trifluoromethylphenyl)]pyrrolidine hydrochloride]
< 30	O=C(c1cnn(C2CCN(c3n[nH]c(CO)n3)CC2)c1C1CC1)N1CC[C@@H](c2ccccc2C(F)(F)F)C1 [Example 119, 1-{5-cyclopropyl-1-[1-(5-hydroxymethyl-4H-[1,2,4]triazol-3-yl)piperidin-4-yl]-1H-pyrazole-4-carbonyl}-[(S)-3-(2-trifluoromethylphenyl)]pyrrolidine hydrochloride]
< 30	O=C(c1cnn(C2CCN(c3n[nH]c(C(F)(F)F)n3)CC2)c1C1CC1)N1CC[C@@H](c2ccccc2C(F)(F)F)C1 [Example 120, 1-{5-cyclopropyl-1-[1-(5-trifluoromethyl-4H-[1,2,4]triazol-3-yl)piperidin-4-yl]-1H-pyrazole-4-carbonyl}-[(S)-3-(2-trifluoromethylphenyl)]pyrrolidine hydrochloride]
< 30	O=C(Nc1ccccc1F)N1CCC(n2ncc(C(=O)N3CC[C@@H](c4ccccc4C(F)(F)F)C3)c2C2CC2)CC1 [Example 124, 1-{5-cyclopropyl-1-[1-(2-fluorophenylcarbamoyl)piperidin-4-yl]-1H-pyrazole-4-carbonyl}-[(S)-3-(2-trifluoromethylphenyl)]pyrrolidine]
< 30	CC(C)NC(=O)N1CCC(n2ncc(C(=O)N3CC[C@@H](c4ccccc4C(F)(F)F)C3)c2C2CC2)CC1 [Example 125, 1-{5-cyclopropyl-1-[1-(1-isopropylcarbamoyl)piperidin-4-yl]-1H-pyrazole-4-carbonyl}-[(S)-3-(2-trifluoromethylphenyl)]pyrrolidine]
< 30	CC1(NC(=O)N2CCC(n3ncc(C(=O)N4CC[C@@H](c5ccccc5C(F)(F)F)C4)c3C3CC3)CC2)CC1 [Example 126, 1-{5-cyclopropyl-1-[1-(1-methylcyclopropylcarbamoyl)piperidin-4-yl]-1H-pyrazole-4-carbonyl}-[(S)-3-(2-trifluoromethylphenyl)]pyrrolidine]
< 30	O=C(c1cnn(C2CCN(c3cnccn3)CC2)c1C1CC1)N1CC[C@@H](c2ccccc2C(F)(F)F)C1 [Example 129, 1-[5-cyclopropyl-1-(1-pyrazin-2-ylpiperidin-4-yl)-1H-pyrazole-4-carbonyl]-[(S)-3-(2-trifluoromethylphenyl)]pyrrolidine hydrochloride]
< 30	NC(=O)[C@H]1CC[C@H](n2ncc(C(=O)N3CC[C@@H](c4ccccc4C(F)(F)F)C3)c2C2CC2)CC1 [Example 130, 1-[1-(trans-4-carbamoylcyclohexyl)-5-cyclopropyl-1H-pyrazole-4-carbonyl]-[(S)-3-(2-trifluoromethylphenyl)]pyrrolidine]
< 30	NC(=O)N[C@H]1CC[C@H](n2ncc(C(=O)N3CC[C@@H](c4ccccc4C(F)(F)F)C3)c2C2CC2)CC1 [Example 131, 1-[5-cyclopropyl-1-(trans-4-ureidocyclohexyl)-1H-pyrazole-4-carbonyl]-[(S)-3-(2-trifluoromethylphenyl)]pyrrolidine]
< 30	O=C(c1cnn([C@H]2CC[C@H](c3nnn[nH]3)CC2)c1C1CC1)N1CC[C@@H](c2ccccc2C(F)(F)F)C1 [Example 132, 1-{5-cyclopropyl-1-[trans-4-(1H-tetrazol-5-yl)cyclohexyl]-1H-pyrazole-4-carbonyl}-[(S)-3-(2-trifluoromethylphenyl)]pyrrolidine]
< 30	CC1(c2c(C(=O)N3CCC(c4cccnc4)C3)cnn2C2CCN(C(=O)Nc3ccc(C(F)(F)F)cc3)CC2)CC1 (centres unmarked) [Example 133, 1-{5-(1-methylcyclopropyl)-1-[1-(4-trifluoromethylphenylcarbamoyl)piperidin-4-yl]-1H-pyrazole-4-carbonyl}-3-(pyridin-3-yl)pyrrolidine]
< 30	COC1(c2c(C(=O)N3CCC(c4ccccc4C(F)(F)F)C3)cnn2C2CCN(C(=O)Nc3ccccc3F)CC2)CC1 (centres unmarked) [Example 134, 1-{1-[1-(2-fluorophenylcarbamoyl)piperidin-4-yl]-5-(1-methoxycyclopropyl)-1H-pyrazole-4-carbonyl}-3-(2-trifluoromethylphenyl)pyrrolidine]
< 30	CC1(c2c(C(=O)N3CCC(c4ccccc4)(C(F)(F)F)C3)cnn2C2CCN(C(=O)Nc3ccccc3F)CC2)CC1 (centres unmarked) [Example 135, 1-{1-[1-(2-fluorophenylcarbamoyl)piperidin-4-yl]-5-(1-methylcyclopropyl)-1H-pyrazole-4-carbonyl}-3-phenyl-3-trifluoromethylpyrrolidine]
< 30	O=C(Nc1ccc(F)cc1F)N1CCC(n2ncc(C(=O)N3CCC(c4ccccc4Cl)C3)c2C2CC2)CC1 (centres unmarked) [Example 136, 3-(2-chlorophenyl)-1-{5-cyclopropyl-1-[1-(2,4-difluorophenylcarbamoyl)piperidin-4-yl]-1H-pyrazole-4-carbonyl}pyrrolidine]
< 30	O=C(Nc1ccccc1F)N1CCC(n2ncc(C(=O)N3CCC(c4cccnc4Cl)C3)c2C2CC2)CC1 (centres unmarked) [Example 137, 3-(2-chloropyridin-3-yl)-1-{5-cyclopropyl-1-[1-(2-fluorophenylcarbamoyl)piperidin-4-yl]-1H-pyrazole-4-carbonyl}pyrrolidine]
< 30	CC1(C)C(c2c(C(=O)N3CCC(c4cccnc4)C3)cnn2C2CCN(C(=O)Nc3ccccc3F)CC2)C1(C)C (centres unmarked) [Example 138, 1-{1-[1-(2-fluorophenylcarbamoyl)piperidin-4-yl]-5-(2,2,3,3-tetramethylcyclopropyl)-1H-pyrazole-4-carbonyl}-3-(pyridin-3-yl)pyrrolidine]
< 30	O=C(Nc1ccccc1F)N1CCC(n2ncc(C(=O)N3CCC(c4cccnc4)C3)c2C2CCCCC2)CC1 (centres unmarked) [Example 139, 1-{5-cyclohexyl-1-[1-(2-fluorophenylcarbamoyl)piperidin-4-yl]-1H-pyrazole-4-carbonyl}-3-(pyridin-3-yl)pyrrolidine]
< 30	O=C(Nc1ccccc1F)N1CCC(n2ncc(C(=O)N3CCC(c4ccccc4OC(F)(F)F)C3)c2C2CC2)CC1 (centres unmarked) [Example 140, 1-{5-cyclopropyl-1-[1-(2-fluorophenylcarbamoyl)piperidin-4-yl]-1H-pyrazole-4-carbonyl}-3-(2-trifluoromethoxyphenyl)pyrrolidine]
< 30	O=C(Nc1ccc(C(F)(F)F)cc1)N1CCC(n2ncc(C(=O)N3CCC(c4ccccc4C(F)(F)F)C3)c2C2CC2)CC1 (centres unmarked) [Example 141, 1-{5-cyclopropyl-1-[1-(4-trifluoromethylphenylcarbamoyl)piperidin-4-yl]-1H-pyrazole-4-carbonyl}-3-(2-trifluoromethylphenyl)pyrrolidine]
< 30	CC(C)[C@@H](C(=O)O)N(C)C(=O)N1CCC(n2ncc(C(=O)N3CCC(c4ccccc4C(F)(F)F)C3)c2C2CC2)CC1 (stereo partly drawn) [Example 142, 1-(5-cyclopropyl-1-{1-[((S)-1-carboxy-2-methyl-propyl)methylcarbamoyl]piperidin-4-yl}-1H-pyrazole-4-carbonyl)-3-(2-trifluoromethylphenyl)pyrrolidine]
< 30	O=C(Nc1nccs1)N1CCC(n2ncc(C(=O)N3CCC(c4ccccc4C(F)(F)F)C3)c2C2CC2)CC1 (centres unmarked) [Example 145, 1-{5-cyclopropyl-1-[1-(thiazol-2-ylcarbamoyl)piperidin-4-yl]-1H-pyrazole-4-carbonyl}-3-(2-trifluoromethylphenyl)pyrrolidine]
< 30	CC(C)ONC(=O)N1CCC(n2ncc(C(=O)N3CCC(c4ccccc4C(F)(F)F)C3)c2C2(C)CC2)CC1 (centres unmarked) [Example 146, 1-{1-[1-(isopropoxycarbamoyl)piperidin-4-yl]-5-(1-methylcyclopropyl)-1H-pyrazole-4-carbonyl}-3-(2-trifluoromethylphenyl)pyrrolidine]
< 30	O=C(NCc1ccc(F)cc1)N1CCC(n2ncc(C(=O)N3CCC(c4ccccc4C(F)(F)F)C3)c2C2CC2)CC1 (centres unmarked) [Example 147, 1-{5-cyclopropyl-1-[1-(4-fluorobenzylcarbamoyl)piperidin-4-yl]-1H-pyrazole-4-carbonyl}-3-(2-trifluoromethylphenyl)pyrrolidine]
< 30	CC1(c2c(C(=O)N3CCC(c4cccnc4)C3)cnn2C2CCN(C(=O)N3CCc4ccccc43)CC2)CC1 (centres unmarked) [Example 148, 1-{1-[1-(2,3-dihydroindole-1-carbonyl)piperidin-4-yl]-5-(1-methylcyclopropyl)-1H-pyrazole-4-carbonyl}-3-(pyridin-3-yl)pyrrolidine]
< 30	CC1(c2c(C(=O)N3CCC(c4cccnc4)C3)cnn2C2CCN(C(=O)N3CCOc4ccccc43)CC2)CC1 (centres unmarked) [Example 149]
